# Experimental data taken from ChEMBL document CHEMBL1201862, “PubChem BioAssay data set” (2004).
# Calls of active or inactive are those of the source.
# What was measured:
# [1] = system: HEK293; assay: optical interference in Abeta FP readout, dose response, artefact control for IDE activator project, biochemical, fluorescence polarization (AID 588442); format: functional, cell-based; conditions: Homo sapiens
# [2] = molecular target: T1, Insulin-degrading enzyme (Homo sapiens, UniProt P14735); assay: activators of endogenous IDE in HEK cells, dose response, cell-based, fluorescence polarization (AID 588439); format: functional
# T1 sequence (P14735 whole entry): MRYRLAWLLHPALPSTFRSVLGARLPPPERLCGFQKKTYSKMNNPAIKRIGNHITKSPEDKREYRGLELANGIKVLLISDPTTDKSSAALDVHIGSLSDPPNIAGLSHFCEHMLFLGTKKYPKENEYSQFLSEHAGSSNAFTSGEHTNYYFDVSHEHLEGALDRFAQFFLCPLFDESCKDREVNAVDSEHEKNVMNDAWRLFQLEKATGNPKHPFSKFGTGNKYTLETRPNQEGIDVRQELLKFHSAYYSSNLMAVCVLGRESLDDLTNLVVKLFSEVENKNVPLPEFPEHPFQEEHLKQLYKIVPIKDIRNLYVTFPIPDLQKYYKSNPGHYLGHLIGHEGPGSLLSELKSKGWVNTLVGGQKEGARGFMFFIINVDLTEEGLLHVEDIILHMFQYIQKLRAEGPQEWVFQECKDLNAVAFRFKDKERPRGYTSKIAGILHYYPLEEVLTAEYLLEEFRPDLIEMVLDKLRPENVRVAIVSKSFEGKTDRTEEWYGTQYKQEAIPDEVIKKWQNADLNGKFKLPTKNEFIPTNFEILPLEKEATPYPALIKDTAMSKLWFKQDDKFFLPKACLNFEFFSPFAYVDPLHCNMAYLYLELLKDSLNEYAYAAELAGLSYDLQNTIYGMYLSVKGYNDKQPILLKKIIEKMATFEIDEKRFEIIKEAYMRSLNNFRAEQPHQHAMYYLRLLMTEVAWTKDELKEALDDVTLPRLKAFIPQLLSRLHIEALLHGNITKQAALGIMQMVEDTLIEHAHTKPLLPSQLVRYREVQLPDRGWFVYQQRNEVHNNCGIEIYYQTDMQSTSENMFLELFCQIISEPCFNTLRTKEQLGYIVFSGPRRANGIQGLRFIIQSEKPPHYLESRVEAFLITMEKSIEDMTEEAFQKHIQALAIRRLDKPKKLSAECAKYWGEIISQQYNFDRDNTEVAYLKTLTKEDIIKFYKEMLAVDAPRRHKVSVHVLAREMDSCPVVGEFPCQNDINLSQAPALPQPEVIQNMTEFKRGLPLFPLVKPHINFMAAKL
# [3] = molecular target: T1, Insulin-degrading enzyme; assay: activators of recombinant IDE enzyme, dose response, counter-screen for IDE activator project, biochemical, fluorescence polarization (AID 588681)
# [4] = system: HEK293; assay: HEK cell cytotoxicity by LDH release, dose response, cytotoxicity control for IDE activator project, fluorescence, HEK cells (AID 588440); format: functional, cell-based; conditions: Homo sapiens;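 further: cytotoxicity by LDH release measuring loss of membrane integrity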
# [5] = molecular target: Serine/threonine-protein phosphatase (Homo sapiens, UniProt Q9BPW0); assay: PP5 phosphatase inhibitors, dose response, biochemical, fluorescence (AID 2395)
# Serine/threonine-protein phosphatase, sequence (Q9BPW0 whole entry): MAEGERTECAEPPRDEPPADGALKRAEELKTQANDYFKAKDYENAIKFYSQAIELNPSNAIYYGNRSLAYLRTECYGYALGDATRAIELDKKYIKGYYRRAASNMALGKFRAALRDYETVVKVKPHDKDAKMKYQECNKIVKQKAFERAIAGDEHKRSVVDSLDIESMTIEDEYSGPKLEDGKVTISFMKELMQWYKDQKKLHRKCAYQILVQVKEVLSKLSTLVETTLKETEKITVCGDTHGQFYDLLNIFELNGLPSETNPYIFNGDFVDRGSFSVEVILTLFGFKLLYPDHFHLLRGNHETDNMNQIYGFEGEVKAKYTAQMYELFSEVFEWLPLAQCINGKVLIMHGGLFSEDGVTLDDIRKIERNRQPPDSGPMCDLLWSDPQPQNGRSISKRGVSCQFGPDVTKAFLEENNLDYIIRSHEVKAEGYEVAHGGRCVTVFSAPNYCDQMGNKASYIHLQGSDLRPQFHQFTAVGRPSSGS
# [6] = molecular target: Serine/threonine-protein phosphatase PP1-alpha catalytic subunit (Homo sapiens, UniProt P62136); assay: PP1 phosphatase inhibitors, dose response, biochemical, fluorescence (AID 2394)
# Serine/threonine-protein phosphatase PP1-alpha catalytic subunit, sequence (P62136 whole entry): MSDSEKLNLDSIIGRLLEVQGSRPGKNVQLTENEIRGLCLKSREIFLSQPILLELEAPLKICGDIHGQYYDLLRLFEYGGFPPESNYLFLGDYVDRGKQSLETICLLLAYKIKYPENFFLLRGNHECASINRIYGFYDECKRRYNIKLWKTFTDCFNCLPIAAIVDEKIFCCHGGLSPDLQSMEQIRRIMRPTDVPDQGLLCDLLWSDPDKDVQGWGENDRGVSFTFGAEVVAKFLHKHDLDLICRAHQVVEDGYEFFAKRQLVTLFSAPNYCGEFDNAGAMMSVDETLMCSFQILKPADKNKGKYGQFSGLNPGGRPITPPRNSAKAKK
# [7] = molecular target: T2, Apoptotic protease-activating factor 1 (Homo sapiens, UniProt O14727); format: functional
# T2 sequence (O14727 whole entry): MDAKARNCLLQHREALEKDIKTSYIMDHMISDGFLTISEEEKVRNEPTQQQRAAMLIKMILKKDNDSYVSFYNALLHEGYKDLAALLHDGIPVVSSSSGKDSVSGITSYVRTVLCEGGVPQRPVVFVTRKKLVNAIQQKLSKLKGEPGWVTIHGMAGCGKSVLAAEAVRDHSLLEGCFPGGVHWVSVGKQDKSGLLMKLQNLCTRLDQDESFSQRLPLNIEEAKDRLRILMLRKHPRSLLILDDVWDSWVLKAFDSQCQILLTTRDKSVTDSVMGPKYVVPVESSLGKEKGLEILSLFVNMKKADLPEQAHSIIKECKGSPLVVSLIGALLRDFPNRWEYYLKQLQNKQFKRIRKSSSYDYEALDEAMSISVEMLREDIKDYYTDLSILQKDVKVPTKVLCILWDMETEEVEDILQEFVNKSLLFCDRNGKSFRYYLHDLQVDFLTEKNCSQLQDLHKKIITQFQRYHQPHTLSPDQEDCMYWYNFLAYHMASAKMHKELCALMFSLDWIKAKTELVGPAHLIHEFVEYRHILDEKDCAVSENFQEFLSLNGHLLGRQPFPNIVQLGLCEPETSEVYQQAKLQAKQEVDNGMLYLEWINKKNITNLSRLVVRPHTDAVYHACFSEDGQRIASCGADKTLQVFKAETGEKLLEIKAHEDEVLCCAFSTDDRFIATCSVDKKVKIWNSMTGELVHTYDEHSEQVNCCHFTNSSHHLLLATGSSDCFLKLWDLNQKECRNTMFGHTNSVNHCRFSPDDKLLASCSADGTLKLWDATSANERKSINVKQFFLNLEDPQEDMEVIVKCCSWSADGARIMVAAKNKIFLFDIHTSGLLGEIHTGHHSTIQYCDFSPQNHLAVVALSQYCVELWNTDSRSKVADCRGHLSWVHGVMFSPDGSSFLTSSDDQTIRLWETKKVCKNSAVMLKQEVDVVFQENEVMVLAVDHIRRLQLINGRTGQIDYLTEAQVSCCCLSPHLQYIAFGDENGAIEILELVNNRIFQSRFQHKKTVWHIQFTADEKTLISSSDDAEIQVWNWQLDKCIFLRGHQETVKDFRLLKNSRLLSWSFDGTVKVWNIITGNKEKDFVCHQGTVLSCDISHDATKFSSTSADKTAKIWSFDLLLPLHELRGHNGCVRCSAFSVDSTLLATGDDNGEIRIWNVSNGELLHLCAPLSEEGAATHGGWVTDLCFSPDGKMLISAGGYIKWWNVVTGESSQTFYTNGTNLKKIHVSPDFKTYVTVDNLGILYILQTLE
# [8] = molecular target: T3, Caspase-6 (Homo sapiens, UniProt P55212); assay: human caspase-6 inhibitors, dose response, biochemical, VEID-R110 fluorescence, cherry-pick (AID 720632)
# T3 sequence (P55212 whole entry): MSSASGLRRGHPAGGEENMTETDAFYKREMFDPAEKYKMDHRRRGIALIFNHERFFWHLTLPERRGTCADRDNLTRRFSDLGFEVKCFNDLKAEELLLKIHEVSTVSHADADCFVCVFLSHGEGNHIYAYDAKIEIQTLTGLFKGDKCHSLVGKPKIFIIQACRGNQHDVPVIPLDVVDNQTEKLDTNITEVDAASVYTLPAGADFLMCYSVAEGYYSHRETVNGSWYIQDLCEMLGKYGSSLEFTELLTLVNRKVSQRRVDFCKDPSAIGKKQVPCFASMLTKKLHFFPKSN
# [9] = molecular target: T4, Sentrin-specific protease 8 (Homo sapiens, UniProt Q96LD8); assay: SENP8 protease inhibitors, SAR follow-up, biochemical, luminescence (AID 504501); format: functional
# T4 sequence (Q96LD8 whole entry): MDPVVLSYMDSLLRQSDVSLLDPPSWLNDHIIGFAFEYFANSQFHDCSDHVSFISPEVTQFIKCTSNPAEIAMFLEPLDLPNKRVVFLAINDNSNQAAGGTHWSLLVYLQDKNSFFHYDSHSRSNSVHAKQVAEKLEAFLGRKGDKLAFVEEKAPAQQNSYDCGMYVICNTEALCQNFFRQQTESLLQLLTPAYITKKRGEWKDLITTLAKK
# [10] = molecular target: T5, Sentrin-specific protease 6 (Homo sapiens, UniProt Q9GZR1); assay: SAR Analysis of small molecule inhibitors of Sentrin-specific protease 6 (SENP6) using a Luminescent assay. [Related pubchem assays (depositor defined):AID2582, AID2599]; format: functional
# T5 sequence (Q9GZR1 whole entry): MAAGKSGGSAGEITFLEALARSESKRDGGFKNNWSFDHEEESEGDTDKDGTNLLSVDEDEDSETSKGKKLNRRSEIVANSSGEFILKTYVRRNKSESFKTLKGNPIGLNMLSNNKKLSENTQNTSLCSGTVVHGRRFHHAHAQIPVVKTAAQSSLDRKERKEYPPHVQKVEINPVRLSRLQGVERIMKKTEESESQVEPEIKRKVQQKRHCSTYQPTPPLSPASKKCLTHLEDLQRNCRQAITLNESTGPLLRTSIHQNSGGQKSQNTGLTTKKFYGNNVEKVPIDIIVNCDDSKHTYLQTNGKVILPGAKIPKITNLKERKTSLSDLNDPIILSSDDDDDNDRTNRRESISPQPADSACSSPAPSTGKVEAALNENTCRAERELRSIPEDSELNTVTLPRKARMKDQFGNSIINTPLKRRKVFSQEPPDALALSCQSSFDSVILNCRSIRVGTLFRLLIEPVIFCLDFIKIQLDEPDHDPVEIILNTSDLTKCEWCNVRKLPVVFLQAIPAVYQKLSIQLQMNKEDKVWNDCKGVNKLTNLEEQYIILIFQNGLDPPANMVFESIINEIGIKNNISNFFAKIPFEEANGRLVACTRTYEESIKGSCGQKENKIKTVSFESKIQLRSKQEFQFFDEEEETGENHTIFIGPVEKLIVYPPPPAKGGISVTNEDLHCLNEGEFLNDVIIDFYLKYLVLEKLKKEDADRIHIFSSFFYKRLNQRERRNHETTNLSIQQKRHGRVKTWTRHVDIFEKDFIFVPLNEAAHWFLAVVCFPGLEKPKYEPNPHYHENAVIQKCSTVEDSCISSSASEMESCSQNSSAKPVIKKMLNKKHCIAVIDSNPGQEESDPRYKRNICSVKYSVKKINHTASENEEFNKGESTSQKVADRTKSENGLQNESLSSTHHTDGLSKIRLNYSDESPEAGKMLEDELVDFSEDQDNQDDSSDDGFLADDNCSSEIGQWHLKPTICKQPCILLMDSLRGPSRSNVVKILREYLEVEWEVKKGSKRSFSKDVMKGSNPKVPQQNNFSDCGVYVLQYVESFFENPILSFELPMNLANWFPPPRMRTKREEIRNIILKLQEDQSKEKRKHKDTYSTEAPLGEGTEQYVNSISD
# [11] = molecular target: T6, Caspase-3 (Homo sapiens, UniProt P42574); assay: SAR Analysis of small molecule inhibitors of Sentrin-specific proteases (SENPs) using a Caspase-3 Selectivity assay. [Related pubchem assays (depositor defined):AID2540, AID2599, AID434973, AID489001]; format: functional
# T6 sequence (P42574 whole entry): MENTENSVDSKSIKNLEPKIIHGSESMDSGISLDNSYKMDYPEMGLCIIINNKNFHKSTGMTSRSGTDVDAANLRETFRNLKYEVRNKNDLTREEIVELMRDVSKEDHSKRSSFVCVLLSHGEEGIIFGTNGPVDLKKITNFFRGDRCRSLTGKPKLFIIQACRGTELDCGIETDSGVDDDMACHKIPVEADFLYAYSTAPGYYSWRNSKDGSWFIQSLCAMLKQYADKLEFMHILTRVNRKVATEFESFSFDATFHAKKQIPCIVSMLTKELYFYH
# [12] = molecular target: T7, Sentrin-specific protease 7 (Homo sapiens, UniProt Q9BQF6); assay: SENP7 protease inhibitors, SAR follow-up, biochemical, luminescence (AID 504497); format: functional
# T7 sequence (Q9BQF6 whole entry): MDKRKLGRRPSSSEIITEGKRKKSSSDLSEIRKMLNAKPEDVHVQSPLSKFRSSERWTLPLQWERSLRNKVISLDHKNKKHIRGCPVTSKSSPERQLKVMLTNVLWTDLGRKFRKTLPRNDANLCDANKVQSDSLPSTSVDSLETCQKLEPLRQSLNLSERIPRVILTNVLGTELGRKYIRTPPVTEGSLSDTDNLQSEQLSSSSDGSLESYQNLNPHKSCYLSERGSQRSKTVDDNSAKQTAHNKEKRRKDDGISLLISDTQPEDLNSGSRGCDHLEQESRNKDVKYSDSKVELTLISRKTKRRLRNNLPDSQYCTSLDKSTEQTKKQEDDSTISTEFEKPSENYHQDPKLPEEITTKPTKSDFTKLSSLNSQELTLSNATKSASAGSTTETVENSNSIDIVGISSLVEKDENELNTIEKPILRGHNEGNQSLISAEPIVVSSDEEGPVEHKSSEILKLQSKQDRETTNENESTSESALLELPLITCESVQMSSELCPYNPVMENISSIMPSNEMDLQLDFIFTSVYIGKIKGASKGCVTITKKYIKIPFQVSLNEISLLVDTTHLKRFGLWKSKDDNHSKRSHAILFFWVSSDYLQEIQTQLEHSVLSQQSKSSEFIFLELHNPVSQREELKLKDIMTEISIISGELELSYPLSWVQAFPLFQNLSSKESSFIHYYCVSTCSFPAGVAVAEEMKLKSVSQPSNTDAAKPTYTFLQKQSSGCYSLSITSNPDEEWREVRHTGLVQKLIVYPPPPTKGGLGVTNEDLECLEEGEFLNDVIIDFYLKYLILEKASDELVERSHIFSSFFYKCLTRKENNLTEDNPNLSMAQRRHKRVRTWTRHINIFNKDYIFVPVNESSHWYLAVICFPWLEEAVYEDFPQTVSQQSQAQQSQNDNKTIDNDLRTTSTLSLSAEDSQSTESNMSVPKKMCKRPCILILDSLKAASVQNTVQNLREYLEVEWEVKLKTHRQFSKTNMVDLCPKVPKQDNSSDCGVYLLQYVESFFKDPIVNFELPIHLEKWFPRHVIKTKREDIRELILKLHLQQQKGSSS
# [13] = molecular target: Melanin-concentrating hormone receptor 1 (Homo sapiens, UniProt Q99705); assay: Late-stage fluorescence-based counterscreen for antagonists of the G-protein coupled receptor 7 (GPR7): cell-based dose response assay to identify antagonists of the melanin-concentrating hormone receptor 1 (MCHR1) Set 5.; format: functional
# Melanin-concentrating hormone receptor 1, sequence (Q99705 whole entry): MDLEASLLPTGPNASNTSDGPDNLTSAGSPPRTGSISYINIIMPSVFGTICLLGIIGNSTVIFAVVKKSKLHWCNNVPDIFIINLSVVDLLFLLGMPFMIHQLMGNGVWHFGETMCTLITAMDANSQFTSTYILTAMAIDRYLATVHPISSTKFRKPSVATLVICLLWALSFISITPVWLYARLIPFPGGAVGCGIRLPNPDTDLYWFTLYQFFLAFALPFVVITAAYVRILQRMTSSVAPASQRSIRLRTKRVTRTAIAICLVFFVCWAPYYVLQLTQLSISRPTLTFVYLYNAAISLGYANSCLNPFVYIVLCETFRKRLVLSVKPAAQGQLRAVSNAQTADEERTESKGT
smiles,measurement,setting,value
O=C1c2ccccc2C(Nc2ccc3[nH]c(-c4cccnc4)nc3c2)N1Cc1ccco1 (stereo not drawn),EC50,[1],> 55.9 µM (inactive)
same,EC50,[2],> 54.6 µM (inactive)
same,EC50,[3],> 54.6 µM (inactive)
same,IC50,[4],> 89.1 µM (inactive)
COC(=O)CCC(=O)OC1(C)C(=O)C=C2C=C(C3CC3)N(CCCCO)C=C2C1=O (stereo not drawn),IC50,[5],11.8 µM (not active)
same,IC50,[6],57.6 µM (not active)
same,IC50,[7],19.4 µM (active)
same,AC50,[8],8.77 µM (active)
Fc1ccc(N/N=C/c2cn(Cc3ccccc3)c3ccccc23)cc1,IC50,[9],> 99 µM (inactive)
same,IC50,[10],> 99 µM (inactive)
same,IC50,[11],> 99 µM (inactive)
same,IC50,[12],> 99 µM (inactive)
COc1ccc(Oc2c(Cl)cnn(Cc3ccccc3C(C)C)c2=O)cc1,IC50,[13],1.95 µM (active)
